Measured values taken from patent US12502362B2, “Inhibitors of nucleotidyltransferase superfamily enzymes as antibiotics” (priority 2017, dated 2025).
Like-named read-outs stand apart in the source and are kept apart here.

Experiments:
[1] = system: S. aureus ATCC strains and MRSA; assay type: cell-based, Staphylococcus aureus
[2] = system: Staphylococcus epidermidis; assay type: cell-based; on FOX screen: key: POS: cefoxitin-screen positive (resistant to cefoxitin)
Description: (§1) It was also tested whether compounds #63 and #285 can inhibit other coagulase-negative Staphylococcus (CNS) including S. epidermidis, S. hominis, etc. […].

[3] = system: Staphylococcus hominis; assay type: cell-based; on FOX screen: key: POS: cefoxitin-screen positive (resistant to cefoxitin)
Description: as §1

[4] = system: Coagulase negative Staphylococcus; assay: Antibiotic susceptibility of coagulase negative Staphylococcus strains; assay type: cell-based
[5] = Se1 (Staphylococcus epidermidis)
[6] = Se2 (Staphylococcus epidermidis)
[7] = Se3 (Staphylococcus epidermidis)
[8] = Se4 (Staphylococcus epidermidis)
[9] = Se5 (Staphylococcus epidermidis)
[10] = CNS1 (Coagulase negative Staphylococcus)
[11] = CNS2 (Coagulase negative Staphylococcus)

CO[C@@]1(NC(=O)Cc2cccs2)C(=O)N2C(C(=O)O)=C(COC(N)=O)CS[C@@H]21 [FOX, Cefoxitin]
FOX screen ([1]; S. aureus ATCC 25923): Neg
FOX screen ([1]; S. aureus ATCC 29213): Neg
FOX screen ([1]; S. aureus ATCC BAA 976): POS
FOX screen ([1]; S. aureus ATCC BAA 977): Neg
FOX screen ([1]; S. aureus ATCC BAA 1026): POS
FOX screen ([1]; Sa1 (MRSA)): POS
FOX screen ([1]; Sa2 (MRSA)): POS
FOX screen ([1]; Sa3 (MRSA)): POS
FOX screen ([1]; Sa6 (MRSA)): POS
FOX screen ([1]; Sa7 (MRSA)): POS
FOX screen ([1]; Sa9 (MRSA)): POS
FOX screen ([1]; Sa11 (MRSA)): POS
FOX screen ([1]; Sa12 (MRSA)): POS
FOX screen ([1]; Sa14 (MRSA)): POS
FOX screen ([1]; Sa15 (MRSA)): POS
FOX screen ([1]; Sa16 (MRSA)): POS
FOX screen ([1]; Sa17 (MRSA)): POS
FOX screen ([1]; Sa18 (MRSA)): POS
FOX screen ([1]; Sa19 (MRSA)): POS
FOX screen ([1]; Sa20 (MRSA)): POS
FOX screen ([1]; Sa21 (MRSA)): POS
FOX screen ([1]; Sa22 (MRSA)): POS
FOX screen ([1]; Sa23 (MRSA)): POS
FOX screen [2, 5]: POS
FOX screen [2, 6]: POS
FOX screen [2, 7]: POS
FOX screen [2, 8]: POS
FOX screen [2, 9]: POS
FOX screen ([3]; Sh1 (Staphylococcus hominis)): POS
FOX screen ([3]; Sh2 (Staphylococcus hominis)): POS
FOX screen ([3]; Sh3 (Staphylococcus hominis)): POS
FOX screen [4, 10]: POS
FOX screen [4, 11]: POS

CO[C@H]1/C=C/O[C@@]2(C)Oc3c(C)c(O)c4c(O)c(c(/C=N/N5CCN(C)CC5)c(O)c4c3C2=O)NC(=O)/C(C)=C\C=C\[C@H](C)[C@H](O)[C@@H](C)[C@@H](O)[C@@H](C)[C@H](OC(C)=O)[C@@H]1C [RIF, Rifampin]
Antibiotic susceptibility ([1]; S. aureus ATCC 25923): S
Antibiotic susceptibility ([1]; S. aureus ATCC 29213): S
Antibiotic susceptibility ([1]; S. aureus ATCC BAA 976): S
Antibiotic susceptibility ([1]; S. aureus ATCC BAA 977): S
Antibiotic susceptibility ([1]; S. aureus ATCC BAA 1026): S
Antibiotic susceptibility ([1]; Sa1 (MRSA)): S
Antibiotic susceptibility ([1]; Sa2 (MRSA)): S
Antibiotic susceptibility ([1]; Sa3 (MRSA)): S
Antibiotic susceptibility ([1]; Sa6 (MRSA)): S
Antibiotic susceptibility ([1]; Sa7 (MRSA)): S
Antibiotic susceptibility ([1]; Sa9 (MRSA)): S
Antibiotic susceptibility ([1]; Sa11 (MRSA)): S
Antibiotic susceptibility ([1]; Sa12 (MRSA)): S
Antibiotic susceptibility ([1]; Sa14 (MRSA)): S
Antibiotic susceptibility ([1]; Sa15 (MRSA)): R
Antibiotic susceptibility ([1]; Sa16 (MRSA)): S
Antibiotic susceptibility ([1]; Sa17 (MRSA)): S
Antibiotic susceptibility ([1]; Sa18 (MRSA)): S
Antibiotic susceptibility ([1]; Sa19 (MRSA)): S
Antibiotic susceptibility ([1]; Sa20 (MRSA)): S
Antibiotic susceptibility ([1]; Sa21 (MRSA)): S
Antibiotic susceptibility ([1]; Sa22 (MRSA)): S
Antibiotic susceptibility ([1]; Sa23 (MRSA)): S
MRSA strains resistant ([1]; number of resistant strains out of 21 MRSA strains): 1/21
Antibiotic susceptibility [2]: S
Antibiotic susceptibility [3]: S
Antibiotic susceptibility [4, 10]: S
Antibiotic susceptibility [4, 11]: S

CN[C@H](CC(C)C)C(=O)N[C@H]1C(=O)N[C@@H](CC(N)=O)C(=O)N[C@H]2C(=O)N[C@H]3C(=O)N[C@H](C(=O)N[C@H](C(=O)O)c4cc(O)cc(O)c4-c4cc3ccc4O)[C@H](O)c3ccc(c(Cl)c3)Oc3cc2cc(c3O[C@@H]2O[C@H](CO)[C@@H](O)[C@H](O)[C@H]2O[C@H]2C[C@](C)(N)[C@H](O)[C@H](C)O2)Oc2ccc(cc2Cl)[C@H]1O [VAN, vancomycin]
Antibiotic susceptibility ([1]; S. aureus ATCC 25923): S
Antibiotic susceptibility ([1]; S. aureus ATCC 29213): S
Antibiotic susceptibility ([1]; S. aureus ATCC BAA 976): S
Antibiotic susceptibility ([1]; S. aureus ATCC BAA 977): S
Antibiotic susceptibility ([1]; S. aureus ATCC BAA 1026): S
Antibiotic susceptibility ([1]; Sa1 (MRSA)): S
Antibiotic susceptibility ([1]; Sa2 (MRSA)): S
Antibiotic susceptibility ([1]; Sa3 (MRSA)): S
Antibiotic susceptibility ([1]; Sa5 (MRSA)): S
Antibiotic susceptibility ([1]; Sa6 (MRSA)): S
Antibiotic susceptibility ([1]; Sa7 (MRSA)): S
Antibiotic susceptibility ([1]; Sa8 (MRSA)): S
Antibiotic susceptibility ([1]; Sa9 (MRSA)): S
Antibiotic susceptibility ([1]; Sa10 (MRSA)): S
Antibiotic susceptibility ([1]; Sa11 (MRSA)): S
Antibiotic susceptibility ([1]; Sa12 (MRSA)): S
Antibiotic susceptibility ([1]; Sa14 (MRSA)): S
Antibiotic susceptibility ([1]; Sa15 (MRSA)): S
Antibiotic susceptibility ([1]; Sa16 (MRSA)): S
Antibiotic susceptibility ([1]; Sa17 (MRSA)): S
Antibiotic susceptibility ([1]; Sa18 (MRSA)): S
Antibiotic susceptibility ([1]; Sa19 (MRSA)): S
Antibiotic susceptibility ([1]; Sa20 (MRSA)): S
Antibiotic susceptibility ([1]; Sa21 (MRSA)): S
Antibiotic susceptibility ([1]; Sa22 (MRSA)): S
Antibiotic susceptibility ([1]; Sa23 (MRSA)): S
Antibiotic susceptibility [2, 5]: S
Antibiotic susceptibility [2, 6]: S
Antibiotic susceptibility [2, 7]: S
Antibiotic susceptibility [2, 8]: S
Antibiotic susceptibility [2, 9]: S
Antibiotic susceptibility ([3]; Sh1 (Staphylococcus hominis)): S
Antibiotic susceptibility ([3]; Sh2 (Staphylococcus hominis)): S
Antibiotic susceptibility ([3]; Sh3 (Staphylococcus hominis)): S
Antibiotic susceptibility [4, 10]: S
Antibiotic susceptibility [4, 11]: S

CN(C)[C@@H]1C(O)=C(C(N)=O)C(=O)[C@@]2(O)C(O)=C3C(=O)c4c(O)cccc4[C@@](C)(O)[C@H]3C[C@@H]12 [TET, Tetracycline]
Antibiotic susceptibility ([1]; S. aureus ATCC 25923): S
Antibiotic susceptibility ([1]; S. aureus ATCC 29213): S
Antibiotic susceptibility ([1]; S. aureus ATCC BAA 976): S
Antibiotic susceptibility ([1]; S. aureus ATCC BAA 977): S
Antibiotic susceptibility ([1]; S. aureus ATCC BAA 1026): S
Antibiotic susceptibility ([1]; Sa1 (MRSA)): S
Antibiotic susceptibility ([1]; Sa2 (MRSA)): S
Antibiotic susceptibility ([1]; Sa3 (MRSA)): S
Antibiotic susceptibility ([1]; Sa5 (MRSA)): S
Antibiotic susceptibility ([1]; Sa6 (MRSA)): S
Antibiotic susceptibility ([1]; Sa7 (MRSA)): S
Antibiotic susceptibility ([1]; Sa9 (MRSA)): S
Antibiotic susceptibility ([1]; Sa11 (MRSA)): S
Antibiotic susceptibility ([1]; Sa12 (MRSA)): S
Antibiotic susceptibility ([1]; Sa14 (MRSA)): S
Antibiotic susceptibility ([1]; Sa15 (MRSA)): S
Antibiotic susceptibility ([1]; Sa16 (MRSA)): S
Antibiotic susceptibility ([1]; Sa17 (MRSA)): S
Antibiotic susceptibility ([1]; Sa18 (MRSA)): S
Antibiotic susceptibility ([1]; Sa19 (MRSA)): S
Antibiotic susceptibility ([1]; Sa20 (MRSA)): S
Antibiotic susceptibility ([1]; Sa21 (MRSA)): S
Antibiotic susceptibility ([1]; Sa22 (MRSA)): S
Antibiotic susceptibility ([1]; Sa23 (MRSA)): S
Antibiotic susceptibility [2, 5]: S
Antibiotic susceptibility [2, 6]: S
Antibiotic susceptibility [2, 7]: S
Antibiotic susceptibility [2, 8]: S
Antibiotic susceptibility [2, 9]: S
Antibiotic susceptibility ([3]; Sh1 (Staphylococcus hominis)): R
Antibiotic susceptibility ([3]; Sh2 (Staphylococcus hominis)): R
Antibiotic susceptibility ([3]; Sh3 (Staphylococcus hominis)): S
Antibiotic susceptibility [4, 10]: S
Antibiotic susceptibility [4, 11]: S

CN(C)c1cc(NC(=O)CNC(C)(C)C)c(O)c2c1C[C@H]1C[C@H]3[C@H](N(C)C)C(O)=C(C(N)=O)C(=O)[C@@]3(O)C(O)=C1C2=O [TGC, Tigecycline]
Antibiotic susceptibility ([1]; S. aureus ATCC 25923): S
Antibiotic susceptibility ([1]; S. aureus ATCC 29213): S
Antibiotic susceptibility ([1]; S. aureus ATCC BAA 976): S
Antibiotic susceptibility ([1]; S. aureus ATCC BAA 977): S
Antibiotic susceptibility ([1]; S. aureus ATCC BAA 1026): S
Antibiotic susceptibility ([1]; Sa1 (MRSA)): S
Antibiotic susceptibility ([1]; Sa2 (MRSA)): S
Antibiotic susceptibility ([1]; Sa3 (MRSA)): S
Antibiotic susceptibility ([1]; Sa6 (MRSA)): S
Antibiotic susceptibility ([1]; Sa7 (MRSA)): S
Antibiotic susceptibility ([1]; Sa9 (MRSA)): S
Antibiotic susceptibility ([1]; Sa11 (MRSA)): S
Antibiotic susceptibility ([1]; Sa12 (MRSA)): S
Antibiotic susceptibility ([1]; Sa14 (MRSA)): S
Antibiotic susceptibility ([1]; Sa15 (MRSA)): S
Antibiotic susceptibility ([1]; Sa16 (MRSA)): S
Antibiotic susceptibility ([1]; Sa17 (MRSA)): S
Antibiotic susceptibility ([1]; Sa18 (MRSA)): S
Antibiotic susceptibility ([1]; Sa19 (MRSA)): S
Antibiotic susceptibility ([1]; Sa20 (MRSA)): S
Antibiotic susceptibility ([1]; Sa21 (MRSA)): S
Antibiotic susceptibility ([1]; Sa22 (MRSA)): S
Antibiotic susceptibility ([1]; Sa23 (MRSA)): S
Antibiotic susceptibility [2, 5]: S
Antibiotic susceptibility [2, 6]: S
Antibiotic susceptibility [2, 7]: S
Antibiotic susceptibility [2, 8]: S
Antibiotic susceptibility [2, 9]: S
Antibiotic susceptibility ([3]; Sh1 (Staphylococcus hominis)): S
Antibiotic susceptibility ([3]; Sh2 (Staphylococcus hominis)): S
Antibiotic susceptibility ([3]; Sh3 (Staphylococcus hominis)): S
Antibiotic susceptibility [4, 10]: S
Antibiotic susceptibility [4, 11]: S
